# Data from patent US20220056014A1, “PHENYLPYRROLIDINE COMPOUND AND USE THEREOF” (WUHAN HUMANWELL INNOVATIVE DRUG RESEARCH AND DEVELOPMENT …, priority 2018, published 2022).
# Experiments:
# [1] = biological target: T1, PDE4B (Homo sapiens, UniProt Q07343); experiment: PDE4B enzyme activity assay (PDE-Glo Phosphodiesterase Assay Kit); type: biochemical; settings: for IC50 (PDE4D)/IC50 (PDE4B): selectivity ratio
# T1 construct: purchased Enzo Life Sciences BML-SE522-0020
# Method in brief: (§1)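 Recombinant human PDE4B (1 ng/μl working solution) or PDE4D (4 ng/μl working solution) preincubated 5 min at RT with compound, then reacted 20 min with cAMP (2 μM in added solution). PDE-Glo termination/detection and Kinase-Glo steps followed; luminescence read and IC50 fitted.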
# [2] = biological target: T2, PDE4D (Homo sapiens, UniProt Q08499); experiment: PDE4D enzyme activity assay (PDE-Glo Phosphodiesterase Assay Kit); type: biochemical
# T2 construct: purchased Enzo Life Sciences BML-SE523-0020
# Method in brief: as §1
# [3] = Pharmacokinetic test in canine; type: in vivo, beagle dogs; settings: male, beagle, dog, plasma, oral gavage 5 mg/kg
# Method: In the rat pharmacokinetic test, 3 male SD rats (180-240 g) were fasted overnight, and orally administered with 10 mg/kg of compound to be tested. Blood was collected before the administration, and 15 min, 30 min, 1 h, 2 h, 4 h, 8 h, and 24 h hours after the administration. The blood sample was centrifuged at 8000 rpm for 6 min at 4° C., and the plasma was collected and stored at −20° C. The plasma collected at each time point was added and mixed with 3-5 times the amount of acetonitrile solution containing an internal standard, vortexed for 1 min, centrifuged at 13,000 rpm for 10 min at 4° C. The supernatant was taken and mixed with 3 times the amount of water, and an appropriate amount of the mixture was taken for LC-MS/MS analysis. The main pharmacokinetic parameters were analyzed with WinNonlin 7.0 software non-compartmental model.
# In the mouse pharmacokinetic test, 9 male CD-1 mice (20-25 g) were fasted overnight, and orally administered with 10 mg/kg of the compound to be tested. Bloods of 3 mice were collected at each time point, and bloods of 9 mice were alternately collected in total. In the pharmacokinetic test in canine, 3 male beagle dogs (8-10 kg) were fasted overnight, and orally administered with 5 mg/kg of the compound to be test. In the pharmacokinetic test of cynomolgus monkeys, 3 male cynomolgus monkeys (4 to 6.5 kg) were fasted overnight, and orally administered 20 mg/kg of the compound to be test. The remaining processes are the same as those of the rat pharmacokinetic test.
# [4] = tested on: Mouse CIA arthritis model; experiment: Mouse CIA arthritis model test; type: in vivo, DBA/1 mice; settings: 30 mg/kg oral, twice a day for 21 days; for inhibition rate based on clinical score AUC: AUC day 21 to day 42; for Clinical score (endpoint): day 42, highest score 16
# Method: (1) Preparation of Type II Collagen/Complete Freund's Adjuvant
# Preparation of acetic acid: 2N acetic acid was diluted to 100 mM, filtered with 0.22 μm filter membrane, and stored at 4° C.
# Preparation of bovine type II collagen solution: bovine type II collagen (CII) was dissolved in 100 mM acetic acid solution and stored at 4° C. overnight. A final concentration of collagen was 8 mg/mL.
# Preparation of emulsion: the CII solution stored overnight was mixed with an equal volume of complete Freund's adjuvant, and homogenized on ice by a high-speed homogenizer at 30,000 rpm for approximately 60 min, until the solution formed a stable emulsion.
# After DBA/1 mice were anesthetized with isoflurane, 50 μl of prepared collagen emulsion (containing 200 micrograms of CII) was injected subcutaneously in the tail (2-3 cm from the base of the tail) for immunization. The day of the primary immunization was recorded as day 0, and the following days were recorded sequentially. On day 21, the same volume of collagen emulsion was injected into the tail in the same way. Mice in the normal group were not immunized.
# On day 21, the mice that had been induced to have arthritis were randomly grouped according to their body weights, such that the average body weight of each group was consistent, and they were randomly divided into 6 treatment groups for administration, with 10 mice in each group.
# G1 group included normal mice without being treated; G2 group was given a blank vehicle; G3 to G7 groups were administrated with the compound at a dose of 30 mg/kg, twice a day for 21 days. The volume of oral administration was 10 mL/kg.
# After the enhanced immunization, the disease incidence of the mice was observed every day. When the mice began to develop symptoms (clinical symptoms of arthritis emerged), the symptoms were graded as 0 to 4 according to the different degrees of pathological changes (redness, joint deformation), where the highest score for each limb was 4, and the highest score for each animal was 16. The mice were graded at least three times a week.
# The area under curve (AUC) of clinical scores of each group from day 21 to day 42 was calculated, and the inhibition rate % of the clinical score AUC of the administration group was calculated:
# Inhibition rate %=1−(administration group AUC/blank vehicle group AUC)*100%
# The experimental data are expressed as Mean±standard error (Mean±SEM), and the clinical scores were analyzed with One-way ANOVA, where p<0.05 was considered to be a significant difference.
# T1 sequence (Q07343 whole entry): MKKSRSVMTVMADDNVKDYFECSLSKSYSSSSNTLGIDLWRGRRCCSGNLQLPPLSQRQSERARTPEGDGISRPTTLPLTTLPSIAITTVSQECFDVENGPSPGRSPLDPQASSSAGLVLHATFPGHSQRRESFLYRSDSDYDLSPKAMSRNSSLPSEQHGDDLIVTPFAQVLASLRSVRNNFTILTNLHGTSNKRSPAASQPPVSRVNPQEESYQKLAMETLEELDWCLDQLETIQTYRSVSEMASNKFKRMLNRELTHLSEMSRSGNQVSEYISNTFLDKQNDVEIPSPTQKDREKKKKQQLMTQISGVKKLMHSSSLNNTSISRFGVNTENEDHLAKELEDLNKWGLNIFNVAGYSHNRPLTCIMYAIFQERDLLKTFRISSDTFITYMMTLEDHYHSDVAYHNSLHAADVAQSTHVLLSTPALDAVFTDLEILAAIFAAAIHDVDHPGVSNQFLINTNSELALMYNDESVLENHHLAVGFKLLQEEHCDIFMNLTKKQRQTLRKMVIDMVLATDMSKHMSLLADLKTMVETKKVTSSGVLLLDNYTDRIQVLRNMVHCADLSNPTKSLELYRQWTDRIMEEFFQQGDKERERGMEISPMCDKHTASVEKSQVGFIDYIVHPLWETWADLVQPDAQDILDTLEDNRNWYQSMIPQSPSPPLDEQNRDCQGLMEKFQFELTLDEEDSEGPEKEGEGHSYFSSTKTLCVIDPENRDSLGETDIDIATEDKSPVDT
# T2 sequence (Q08499 whole entry): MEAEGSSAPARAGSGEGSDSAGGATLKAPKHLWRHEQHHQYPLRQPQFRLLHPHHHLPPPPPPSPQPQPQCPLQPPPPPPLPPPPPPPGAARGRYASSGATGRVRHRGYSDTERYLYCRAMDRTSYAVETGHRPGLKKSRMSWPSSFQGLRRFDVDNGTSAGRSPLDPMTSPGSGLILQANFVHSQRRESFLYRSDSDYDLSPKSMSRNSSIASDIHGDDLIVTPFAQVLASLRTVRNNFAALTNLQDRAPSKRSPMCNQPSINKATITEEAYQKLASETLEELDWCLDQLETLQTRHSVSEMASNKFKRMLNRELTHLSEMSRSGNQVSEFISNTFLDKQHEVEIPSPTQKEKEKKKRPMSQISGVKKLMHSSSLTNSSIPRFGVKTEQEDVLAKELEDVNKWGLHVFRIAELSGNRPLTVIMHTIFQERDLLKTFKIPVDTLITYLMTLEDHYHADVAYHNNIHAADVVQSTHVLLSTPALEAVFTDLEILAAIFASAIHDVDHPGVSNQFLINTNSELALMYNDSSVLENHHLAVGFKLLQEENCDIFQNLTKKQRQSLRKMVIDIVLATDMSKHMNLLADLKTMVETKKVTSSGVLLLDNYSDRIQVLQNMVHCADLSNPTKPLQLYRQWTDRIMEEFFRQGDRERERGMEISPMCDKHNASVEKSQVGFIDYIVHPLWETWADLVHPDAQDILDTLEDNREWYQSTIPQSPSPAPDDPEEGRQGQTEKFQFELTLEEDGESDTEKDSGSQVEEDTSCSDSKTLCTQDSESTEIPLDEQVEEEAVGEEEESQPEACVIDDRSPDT
SMILES,IC50 [1] [nM],IC50 (PDE4D)/IC50 (PDE4B) [1],IC50 [2] [nM],AUC(0-t) [3] [ng·h/mL],Cmax [3] [ng/mL],Tmax [3] [min],inhibition rate based on clinical score AUC [4] [%],Clinical score (endpoint) [4]
"COc1ccc([C@@H]2CN(C(=O)[C@@H](O)CO)C[C@@]2(C)[C@@H](C)O)cc1OC1CN(c2ncc(C)cc2F)C1 [Compound 004, (S)-1-((3S,4S)-4-(3-((1-(3-fluoro-5-methylpyridin-2-yl)azetidin-3-yl)oxy)-4-methoxyphenyl)-3-((R)-1-hydroxyethyl)-3-methylpyrrolidin-1-yl)-2,3-dihydroxypropan-1-one]",0.93,1.20,1.12,1740,484,49.8,67.5,3.3
"COc1ccc([C@@H]2CN(C(=O)[C@@H](O)CO)C[C@@]2(C)[C@@H](C)O)cc1OC1CN(c2ccc(Cl)c(C)n2)C1 [Compound 011, (S)-1-((3S,4S)-4-(3-((1-(5-chloro-6-methylpyridin-2-yl)azetidin-3-yl)oxy)-4-methoxyphenyl)-3-((R)-1-hydroxyethyl)-3-methylpyrrolidin-1-yl)-2,3-dihydroxypropan-1-one]",2.31,0.46,1.07,1420,356,49.8,49.3,4.8
"COc1ccc([C@@H]2CN(C(=O)[C@@H](O)CO)C[C@@]2(C)[C@@H](C)O)cc1OC1CN(c2ccc(C)c(C)n2)C1 [Compound 007, (S)-1-((3S,4S)-4-(3-((1-(5,6-dimethylpyridin-2-yl)azetidin-3-yl)oxy)-4-methoxyphenyl)-3-((R)-1-hydroxyethyl)-3-methylpyrrolidin-1-yl)-2,3-dihydroxypropan-1-one]",1.17,3.37,3.94,1690,689,15,77.2,3.1
"COc1ccc([C@@H]2CN(C(=O)[C@@H](O)CO)C[C@@]2(C)[C@@H](C)O)cc1OC1CN(c2ccc(C)cn2)C1 [Positive control compound, reference compound]",2.1,0.20,0.41,423,159,55.2,42.3,4.4
